This series is described as follows: Rat plasma levels, per os pharmacokinetics in rats (conversion of prodrug to active COX-2 inhibitor). Particulars: maximum plasma concentration of the corresponding lactone (active COX-2 inhibitor) observed in rats dosed at 20 mg/kg orally with the indicated prodrug. Format: in vivo, Male Sprague Dawley rats. The source says:
The animals are housed, fed and cared for according to the Guidelines of the Canadian Council on Animal Care.
Male Sprague Dawley rats (325-375 g) are fasted overnight prior to each PO blood level study.
The rats are placed in the restrainer one at a time and the box is firmly secured. The zero blood sample is obtained by nicking a small (1 mm or less) piece off the tip of the tail. The tail is then stroked with a firm but gentle motion from the top to the bottom to milk out the blood. Approximately 1 mL of blood is collected into a heparinized vacutainer tube.
Compounds are prepared as required, in a standard dosing volume of 10mL/kg, and administered orally by passing a 16 gauge, 3" gavaging needle into the stomach.
Subsequent bleeds are taken in the same manner as the zero bleed except that there is no need to nick the tail again. The tail is cleaned with a piece of gauze and milked/stroked as described above into the appropriately labelled tubes.
Immediately after sampling, blood is centrifuged, separated, put into clearly marked vials and stored in a freezer until analysed. […]
For analysis, aliquots are diluted with an equal volume of acetonitrile and centrifuged to remove protein precipitate. […] Quantitation is done relative to a clean blood sample spiked with a known quantity of drug. […]

Turning to `COC(=O)/C(=C(\C)c1ccc(S(C)(=O)=O)cc1)c1ccccc1` [Example 1, (E)-3-(4-Methylsulfonyl)phenyl-2-phenylbut-2-enoic acid methyl ester], the “Plasma Levels” value was 1.0 µM.
